Our source for the remaining binding values is paper PMC6576746, “Rational discovery of dual-indication multi-target PDE/Kinase inhibitor for precision anti-cancer therapy using structural systems pharmacology” (PLoS Computational Biology, 2019).

Holding throughout (test): biochemical
What all share (design): DiscoverX KinomeScan competition binding assay across human kinases; per cent of control at 10 and 100 uM
Common to all, as to conditions: competition binding, % of control; read-out: Percent Control (100 uM Levosimendan)

Assay [1] addresses T1, JNK1 (Homo sapiens, UniProt P45983).
T1 construct: gene MAPK8
The protocol: (§1) To validate our computational predictions, we employed a competition binding assay to detect the binding of levosimendan to 425 human kinases as well as its dose-response curve to RIOK1. The proprietary KinomeScan assay was performed by DiscoverX (Fremont, California, USA). The tests were performed at 10 μM and 100 μM concentrations of levosimendan, respectively. Assay results were reported as %control, calculated as follows: %control=(TestCompoundSignal−PositiveControlSignal)/(NegativeControlSignal−PositiveControlSignal)×100 KinomeScan assay across 452 human kinases verified our computational prediction (S1 Table). RIOK1 is one of the strongest inhibited kinases by levosimendan. The percentage control of RIOK1 is 15.0 and 0.0 under the treatment of 10 μM and 100 μM of levosimendan, respectively. […] The percentage controls of five kinases: FLT3, MAP2K5, PIP5K1A, GAK, and KIT are less than 30.0 under the treatment of both 10 μM and 100 μM of levosimendan. Both FLT3 and KIT are tyrosine protein kinases. Their inhibitors have recently been approved for the treatment of Acute Myeloid Leukemia and other types of cancers, but a combination therapy is needed to overcome rapidly emerged drug resistance, thus improve patients’ drug responses. Other kinases inhibited by levosimendan belong to serine/threonine protein kinase family (RIOK1, RIOK3, GAK, and MAP2K5) and lipid kinase family (PIP5K1A). […] As a result, levosimendan may modulate different cancer pathways from those by the tyrosine protein kinase inhibitors, and it could be a novel lead compound for a new anti-cancer therapy to overcome drug resistance of existing drugs or to target different types of cancers through polypharmacology or drug combination.

The target of assay [2] is LIMK2 (Homo sapiens, UniProt P53671). The procedure: as §1
The target in assay [3] is T2, PRP4 (Homo sapiens, UniProt Q13523).
T2 construct: gene PRPF4B
The protocol: as §1

Assay [4] deals with MAP4K4 (Homo sapiens, UniProt O95819). The protocol: as §1
Assay [5] has as its target HASPIN (Homo sapiens, UniProt Q8TF76). The procedure: as §1
Assay [6] addresses T3, JAK1(JH1domain-catalytic) (Homo sapiens, UniProt P23458).
T3 construct: JH1domain-catalytic
The procedure:
as §1

Assay [7] addresses WNK2 (Homo sapiens, UniProt Q9Y3S1). The protocol: as §1
Assay [8] addresses PRKG2 (Homo sapiens, UniProt Q13237). The procedure: as §1
Assay [9] addresses EPHA5 (Homo sapiens, UniProt P54756). The procedure:
as §1

In assay [10] the target is HUNK (Homo sapiens, UniProt P57058). The protocol: as §1
Sequence of HUNK (P57058 whole entry): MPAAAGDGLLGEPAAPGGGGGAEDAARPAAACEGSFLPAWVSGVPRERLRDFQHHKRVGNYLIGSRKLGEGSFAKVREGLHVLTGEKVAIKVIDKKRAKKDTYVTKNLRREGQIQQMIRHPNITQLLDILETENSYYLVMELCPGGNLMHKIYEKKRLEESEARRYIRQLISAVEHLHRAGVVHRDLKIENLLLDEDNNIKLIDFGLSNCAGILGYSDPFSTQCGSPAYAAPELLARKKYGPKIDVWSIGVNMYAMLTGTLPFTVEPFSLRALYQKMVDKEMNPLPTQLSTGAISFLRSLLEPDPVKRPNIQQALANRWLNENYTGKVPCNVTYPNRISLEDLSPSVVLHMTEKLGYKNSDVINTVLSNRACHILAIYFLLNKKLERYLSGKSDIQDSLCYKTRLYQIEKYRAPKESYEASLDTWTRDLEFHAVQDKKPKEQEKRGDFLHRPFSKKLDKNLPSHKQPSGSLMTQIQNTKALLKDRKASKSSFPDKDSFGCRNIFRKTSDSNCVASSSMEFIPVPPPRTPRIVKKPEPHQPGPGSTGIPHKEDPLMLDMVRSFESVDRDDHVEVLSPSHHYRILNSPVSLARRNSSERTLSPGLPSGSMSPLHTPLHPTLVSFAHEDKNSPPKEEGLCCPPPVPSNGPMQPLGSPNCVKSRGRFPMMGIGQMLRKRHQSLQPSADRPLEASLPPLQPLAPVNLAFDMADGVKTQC
Assay [11] addresses WEE1 (Homo sapiens, UniProt P30291). The protocol:
as §1

Assay [12] addresses NEK5 (Homo sapiens, UniProt Q6P3R8). The protocol:
as §1

The target of assay [13] is EPHA2 (Homo sapiens, UniProt P29317). The protocol: as §1
Assay [14] has as its target T4, RSK1(Kin.Dom.1-N-terminal) (Homo sapiens, UniProt Q15418).
T4 construct: gene RPS6KA1; Kin.Dom.1-N-terminal
The procedure: as §1

In assay [15] the target is T5, p38-beta (Homo sapiens, UniProt Q15759).
T5 construct: gene MAPK11
T5 sequence (Q15759 whole entry): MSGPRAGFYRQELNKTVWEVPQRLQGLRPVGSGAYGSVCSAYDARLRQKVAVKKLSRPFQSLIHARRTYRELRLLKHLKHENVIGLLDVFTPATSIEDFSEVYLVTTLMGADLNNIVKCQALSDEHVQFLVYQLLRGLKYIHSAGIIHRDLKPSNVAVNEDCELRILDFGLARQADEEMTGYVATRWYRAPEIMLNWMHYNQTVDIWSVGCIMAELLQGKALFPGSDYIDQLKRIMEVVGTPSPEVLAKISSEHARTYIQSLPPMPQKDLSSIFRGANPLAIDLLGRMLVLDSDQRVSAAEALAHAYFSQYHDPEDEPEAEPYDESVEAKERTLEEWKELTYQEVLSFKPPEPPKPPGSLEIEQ
The protocol: as §1

The target in assay [16] is GRK2 (Homo sapiens, UniProt P25098). The procedure: as §1
Sequence of GRK2 (P25098 whole entry): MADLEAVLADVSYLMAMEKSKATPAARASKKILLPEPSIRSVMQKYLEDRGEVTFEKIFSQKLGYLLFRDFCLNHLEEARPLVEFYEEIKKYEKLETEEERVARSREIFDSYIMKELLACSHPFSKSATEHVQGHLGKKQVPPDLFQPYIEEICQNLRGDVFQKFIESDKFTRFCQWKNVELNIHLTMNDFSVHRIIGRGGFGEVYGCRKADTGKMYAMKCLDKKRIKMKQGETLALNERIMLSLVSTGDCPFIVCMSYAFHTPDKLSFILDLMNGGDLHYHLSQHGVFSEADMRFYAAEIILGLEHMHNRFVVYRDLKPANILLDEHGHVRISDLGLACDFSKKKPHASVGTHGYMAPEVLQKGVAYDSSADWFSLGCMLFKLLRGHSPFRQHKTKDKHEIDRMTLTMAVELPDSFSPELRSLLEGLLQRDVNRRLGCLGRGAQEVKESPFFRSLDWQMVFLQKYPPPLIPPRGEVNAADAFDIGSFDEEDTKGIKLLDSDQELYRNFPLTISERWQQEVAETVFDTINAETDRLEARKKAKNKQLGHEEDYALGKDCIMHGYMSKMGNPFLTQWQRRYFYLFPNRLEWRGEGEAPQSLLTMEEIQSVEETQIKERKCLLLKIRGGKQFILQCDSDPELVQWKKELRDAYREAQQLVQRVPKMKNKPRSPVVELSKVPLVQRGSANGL
For assay [17], the target named is RAF1 (Homo sapiens, UniProt P04049). The procedure:
as §1

In assay [18] the target is ALK (Homo sapiens, UniProt Q9UM73). The protocol: as §1
Sequence of ALK (Q9UM73 whole entry): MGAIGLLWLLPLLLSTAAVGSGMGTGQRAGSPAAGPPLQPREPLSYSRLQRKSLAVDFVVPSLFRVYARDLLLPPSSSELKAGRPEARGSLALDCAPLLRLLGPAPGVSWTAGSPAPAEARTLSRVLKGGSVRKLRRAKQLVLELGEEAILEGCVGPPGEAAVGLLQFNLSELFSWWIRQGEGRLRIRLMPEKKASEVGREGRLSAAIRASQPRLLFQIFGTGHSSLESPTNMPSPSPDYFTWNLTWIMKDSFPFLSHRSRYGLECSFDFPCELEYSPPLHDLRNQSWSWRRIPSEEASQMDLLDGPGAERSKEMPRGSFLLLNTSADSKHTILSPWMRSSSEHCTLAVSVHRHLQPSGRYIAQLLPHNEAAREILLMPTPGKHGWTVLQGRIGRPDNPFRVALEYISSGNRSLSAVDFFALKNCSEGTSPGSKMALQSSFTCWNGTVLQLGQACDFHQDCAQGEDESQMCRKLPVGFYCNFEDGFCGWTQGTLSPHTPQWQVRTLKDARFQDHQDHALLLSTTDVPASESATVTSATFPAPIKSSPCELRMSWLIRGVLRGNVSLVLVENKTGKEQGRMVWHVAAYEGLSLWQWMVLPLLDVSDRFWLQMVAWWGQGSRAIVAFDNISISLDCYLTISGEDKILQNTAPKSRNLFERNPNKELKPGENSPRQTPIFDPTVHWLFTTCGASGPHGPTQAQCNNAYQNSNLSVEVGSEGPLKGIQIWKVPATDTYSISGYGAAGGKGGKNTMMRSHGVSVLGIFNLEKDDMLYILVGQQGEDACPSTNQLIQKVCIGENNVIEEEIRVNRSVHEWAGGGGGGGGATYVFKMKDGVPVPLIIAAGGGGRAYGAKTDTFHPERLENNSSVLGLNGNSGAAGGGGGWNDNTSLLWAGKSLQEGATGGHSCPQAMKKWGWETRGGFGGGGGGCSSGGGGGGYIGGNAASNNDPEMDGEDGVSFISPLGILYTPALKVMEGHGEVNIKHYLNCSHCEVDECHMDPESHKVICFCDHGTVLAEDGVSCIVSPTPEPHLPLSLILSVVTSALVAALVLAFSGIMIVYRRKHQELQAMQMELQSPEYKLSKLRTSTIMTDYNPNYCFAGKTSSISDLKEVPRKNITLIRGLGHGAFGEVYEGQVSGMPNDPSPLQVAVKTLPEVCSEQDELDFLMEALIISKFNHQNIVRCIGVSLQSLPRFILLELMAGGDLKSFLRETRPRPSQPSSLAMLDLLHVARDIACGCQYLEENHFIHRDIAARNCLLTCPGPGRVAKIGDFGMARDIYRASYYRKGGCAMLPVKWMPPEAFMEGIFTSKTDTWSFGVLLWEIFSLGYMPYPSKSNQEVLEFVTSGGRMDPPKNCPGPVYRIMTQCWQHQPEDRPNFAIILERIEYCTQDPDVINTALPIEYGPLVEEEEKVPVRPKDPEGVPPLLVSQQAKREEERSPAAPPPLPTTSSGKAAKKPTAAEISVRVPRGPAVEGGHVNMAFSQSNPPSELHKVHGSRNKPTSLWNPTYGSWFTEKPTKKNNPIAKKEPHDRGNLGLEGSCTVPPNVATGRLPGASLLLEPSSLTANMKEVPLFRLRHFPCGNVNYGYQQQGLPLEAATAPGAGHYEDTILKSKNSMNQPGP
In assay [19] the target is CDK7 (Homo sapiens, UniProt P50613). The protocol:
as §1

The target in assay [20] is T6, AMPK-alpha2 (Homo sapiens, UniProt P54646).
T6 construct: gene PRKAA2
The procedure: as §1

Molecules are shown by their SMILES.

T1 sequence (P45983 whole entry): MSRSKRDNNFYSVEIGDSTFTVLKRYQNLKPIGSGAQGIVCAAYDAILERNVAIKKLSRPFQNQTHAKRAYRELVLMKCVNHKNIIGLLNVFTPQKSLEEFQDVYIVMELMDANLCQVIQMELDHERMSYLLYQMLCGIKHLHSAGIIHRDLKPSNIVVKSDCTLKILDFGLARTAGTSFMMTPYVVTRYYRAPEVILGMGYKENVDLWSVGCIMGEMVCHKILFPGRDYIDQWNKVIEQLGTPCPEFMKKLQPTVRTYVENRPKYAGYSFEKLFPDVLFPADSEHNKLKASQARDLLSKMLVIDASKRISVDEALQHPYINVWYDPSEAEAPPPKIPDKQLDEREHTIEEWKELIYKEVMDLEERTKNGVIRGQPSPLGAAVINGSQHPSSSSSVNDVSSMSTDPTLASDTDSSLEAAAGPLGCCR
Sequence of CDK7 (P50613 whole entry): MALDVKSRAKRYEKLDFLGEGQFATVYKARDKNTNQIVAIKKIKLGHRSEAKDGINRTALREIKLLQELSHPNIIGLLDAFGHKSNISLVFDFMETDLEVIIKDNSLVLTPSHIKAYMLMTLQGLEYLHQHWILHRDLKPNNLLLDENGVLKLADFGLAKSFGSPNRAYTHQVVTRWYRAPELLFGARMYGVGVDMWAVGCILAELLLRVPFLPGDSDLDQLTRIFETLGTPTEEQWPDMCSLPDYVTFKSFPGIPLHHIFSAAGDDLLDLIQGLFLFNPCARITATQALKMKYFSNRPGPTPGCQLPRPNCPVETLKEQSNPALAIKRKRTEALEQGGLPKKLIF
Sequence of PRKG2 (Q13237 whole entry): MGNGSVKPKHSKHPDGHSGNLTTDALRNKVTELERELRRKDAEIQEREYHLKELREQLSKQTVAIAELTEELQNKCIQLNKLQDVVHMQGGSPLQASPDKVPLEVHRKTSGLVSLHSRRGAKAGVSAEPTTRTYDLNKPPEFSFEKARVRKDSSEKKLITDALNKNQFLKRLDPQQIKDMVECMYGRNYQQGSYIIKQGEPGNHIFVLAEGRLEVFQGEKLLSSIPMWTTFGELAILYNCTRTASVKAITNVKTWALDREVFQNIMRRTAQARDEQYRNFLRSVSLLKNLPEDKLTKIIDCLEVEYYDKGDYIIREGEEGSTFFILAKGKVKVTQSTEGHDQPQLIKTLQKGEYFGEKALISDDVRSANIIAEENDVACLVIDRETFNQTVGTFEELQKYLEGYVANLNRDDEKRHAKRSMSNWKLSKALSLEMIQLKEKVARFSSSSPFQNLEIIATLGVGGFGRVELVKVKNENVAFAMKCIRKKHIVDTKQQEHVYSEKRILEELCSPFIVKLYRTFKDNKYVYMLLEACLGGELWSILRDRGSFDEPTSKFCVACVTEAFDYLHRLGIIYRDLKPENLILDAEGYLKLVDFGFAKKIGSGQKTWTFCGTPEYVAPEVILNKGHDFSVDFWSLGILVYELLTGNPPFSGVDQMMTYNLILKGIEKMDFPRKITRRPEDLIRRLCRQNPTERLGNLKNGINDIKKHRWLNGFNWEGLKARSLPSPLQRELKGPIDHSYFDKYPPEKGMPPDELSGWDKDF

`C[C@@H]1CC(=O)NN=C1c1ccc(NN=C(C#N)C#N)cc1` [levosimendan]: the remaining binding at 100 µM was found to be 71% in assay [1]; 87% in assay [2]; 100% in [3]; 100% in assay [4]; 69% in assay [5]; 100% in assay [6]. In addition, the remaining binding at 100 µM amounted to 98% in [7]; 98% in assay [8]; 100% in assay [9]; 100% in [10]; 100% in assay [11]; 86% in assay [12]. Besides, the remaining binding at 100 µM in assay [13] is 76%; in assay [14] it was 84%; in assay [15], 94%; in assay [16], 100%; in assay [17] it was 77%; in [18], 76%. Besides, the remaining binding at 100 µM in assay [19] is 100%; in assay [20], 83%.
